Legend:
Format in all cases: biochemical
IDH1 (R132C) = IDH1 (R132C) (Homo sapiens, UniProt O75874, R132C); assay: IDH enzyme assay, NADPH depletion by diaphorase/resazurin coupled detection; conditions: pre-incubated with enzyme for 1 h at room temperature; 500 μM a-Ketoglutarate+15 μM NADPH; 10-dose, 3-fold dilution from 10 μM; read-out: Compound IC50 (nM) IDH1 (R132C)
Procedure: (§1) Compounds were tested against 3 enzymes, as provided below. Compounds were tested in 10-dose IC50 mode with 3-fold serial dilution at a starting concentration of 10 μM. Control Compounds were tested in 10-dose IC50 mode with 3-fold serial dilution starting at 1 mM or 10 mM. Assay Format: The production or depletion of NADPH by IDH enzymes was measured by diaphorase/resazurin coupled detection. Fluorescence measurement: Ex/Em=535/590 by EnVision. Compounds were pre-incubated with enzyme for 1 h at room temperature. Standard substrate: 1500 μM a-Ketoglutarate+15 μM NADPH for IDH1 (R132H). 500 μM a-Ketoglutarate+15 μM NADPH for IDH1 (R132C). 65 μM Isocitrate+50 μM NADP for IDH1.

IDH1 (R132H) = IDH1 (R132H) (Homo sapiens, UniProt O75874, R132H); assay: as above; conditions: pre-incubated with enzyme for 1 h at room temperature; 1500 μM a-Ketoglutarate+15 μM NADPH; 10-dose, 3-fold dilution from 10 μM; read-out: Compound IC50 (nM) IDH1 (R132H)
Procedure: as §1

IDH1 = IDH1 (Homo sapiens, UniProt O75874); assay: IDH enzyme assay, NADPH production by diaphorase/resazurin coupled detection; conditions: IDH1 WT; pre-incubated with enzyme for 1 h at room temperature; 65 μM Isocitrate+50 μM NADP; 10-dose, 3-fold dilution from 10 μM; read-out: Compound IC50 (nM) IDH1
Procedure: as §1

Chain of IDH1 (R132H) (O75874 whole entry R132H): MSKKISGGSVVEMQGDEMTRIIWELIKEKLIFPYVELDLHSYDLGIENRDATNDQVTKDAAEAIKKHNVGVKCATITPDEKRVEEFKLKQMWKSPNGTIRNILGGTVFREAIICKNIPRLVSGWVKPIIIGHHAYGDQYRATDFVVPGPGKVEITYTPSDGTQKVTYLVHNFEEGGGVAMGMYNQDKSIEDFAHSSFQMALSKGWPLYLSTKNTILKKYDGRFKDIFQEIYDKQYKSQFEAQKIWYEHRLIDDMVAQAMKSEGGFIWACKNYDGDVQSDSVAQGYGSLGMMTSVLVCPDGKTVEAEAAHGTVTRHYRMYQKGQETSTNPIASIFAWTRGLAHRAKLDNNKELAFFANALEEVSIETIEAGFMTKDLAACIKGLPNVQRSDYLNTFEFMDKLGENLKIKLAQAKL
Chain of IDH1 (O75874 whole entry): as the sequence (O75874 whole entry R132H) above, with H132R counted along it
Chain of IDH1 (R132C) (O75874 whole entry R132C): as the sequence (O75874 whole entry R132H) above, with H132C counted along it

IC50 (IDH1 (R132C)) [nM] | IC50 (IDH1 (R132H)) [nM] | IC50 (IDH1) [nM] | Structure (SMILES)
127 | 25 | > 10000 | C=CC(=O)Nc1cccc(Cn2nc(C(=O)Nc3cccc(C)c3)c3c2C(C)CN(C(=O)c2ccc[nH]2)C3)c1 (stereo not drawn) [ISO-2-27, 1-(3-acrylamidobenzyl)-7-methyl-5-(1H-pyrrole-2-carbonyl)-N-(m-tolyl)-4,5,6,7-tetrahydro-1H-pyrazolo[4,3-c]pyridine-3-carboxamide]
5550 | 149 | > 10000 | C=CC(=O)Nc1ccc(Cn2nc(C(=O)Nc3cccc(C)c3)c3c2C(C)CN(C(=O)c2ccc[nH]2)C3)cc1C (stereo not drawn) [ISO-2-28, 1-(4-acrylamido-3-methylbenzyl)-7-methyl-5-(1H-pyrrole-2-carbonyl)-N-(m-tolyl)-4,5,6,7-tetrahydro-1H-pyrazolo[4,3-c]pyridine-3-carboxamide]
14 | 6 | 2210 | C=CC(=O)Nc1cc(NC(=O)c2nn(Cc3ccc(F)cc3)c3c2CN(C(=O)c2ccc[nH]2)C[C@H]3C)ccc1OC [ISO-2-30-R]

From patent publication US20210101899A1, “INHIBITORS OF MUTANT ISOCITRATE DEHYDROGENASES AND COMPOSITIONS AND METHODS THEREOF” (IsoCure Biosciences Inc., priority 2016, published 2021)
